| melting point [°C] | SMILES |
| --- | --- |
| 124 to 125 | Cc1cncn1Cc1ccc(N)cc1 |
| 164 to 168 | CS(=O)(=O)Nc1cccc(Nc2nc(N3CCCC3)c3nc[nH]c3n2)c1 |
| 256 to 258 | CN(Cc1ccc(F)cc1)C1CCN(c2ccc(C(=O)O)cc2)CC1 |
| 263 to 265 | COc1cc(OC(C)C)cc2oc(Sc3ccc(O)cc3)cc(=O)c12 |
| 152 to 155 | CC(C)(C)OC(=O)Nc1ccc(C#Cc2ccccc2Cl)cc1[N+](=O)[O-] |
| 152 to 153 | Cc1cc(C)c(C(O)P(=O)(c2ccccc2)c2ccccc2)c(C)c1 (stereo not given) |
| 168 to 170 | CCC(=O)N1CCC(COc2cccc3nc(C)c(C(=O)O)c(N)c23)CC1 |
| 235 to 247 | O=C(O)c1ccccc1Nc1ccc(Cl)cc1[N+](=O)[O-] |
| 221 | Nc1cn(C2CCN(c3c(F)cc4c(=O)c(C(=O)O)cn(C5CC5)c4c3F)C2)nn1 (stereo not given) |
| 168 to 169 | CC(C)(C)OC(=O)N1CCn2c(Br)c(-c3cccc(F)c3)c(C(=O)n3ccnc3)c2C1 |
| 102 to 103 | COC(=O)[C@H](Cc1cc(I)c(OCCCBr)c(I)c1)NC(=O)OC(C)(C)C |
| 47 to 51 | CCOC(=O)CC(=O)c1cc(F)c(F)c(Br)c1Cl |
| 95 to 96 | COC(=O)c1ccccc1OCNC(=O)OC(C)(C)C |
| 113 to 116 | COc1ccc(-c2nc(C(=O)OC(C)C)cc(Cl)c2Cl)cc1 |
| 139 | CC(O)CN(CC(C)O)c1cc(C(C)(C)C)cc(C(C)(C)C)c1 (stereo not given) |
| 135 to 136 | CC1CC(=O)C(C(=O)c2ccc(C(F)(F)F)cc2[N+](=O)[O-])C(=O)O1 (stereo not given) |
| 195 to 196 | CC(C)C(C)(C#N)N1C(=O)c2cc3ccccc3nc2C1=O (stereo not given) |
| 75 | Cc1cc(C)c(C2=C(OC(=O)C(C)(C)C)CN(C)C2=O)c(C)c1 |
| 198 to 202 | N#Cc1ccc(-c2ccc(S(=O)(=O)NCc3ccncc3)cc2)cc1 |
| 227 to 228 | CC(=O)N(C)N(C)c1ccc(CCn2cnc3cc(-c4ccc(Cl)cc4)sc3c2=O)cc1 |
| 208 | CCOc1ccc2c(c1)n(C1CCCCC1)c(=O)n2S(=O)(=O)c1ccc(NC(=O)N(C)C(C)(C)C)cc1OC |
| 170 | CCOC(=O)COc1cc(C2C(C(=O)OC)=C(C)NC(C)=C2C(=O)OC)ccc1OC |

| melting point [°C] | SMILES |
| --- | --- |
| 243 to 245 | CCOc1cc2cc(C(=O)O)sc2cc1OCC |
| 237 to 238 | CNn1cc(C(=O)O)c(=O)c2cc(F)c(F)c(F)c21 |
| 116 to 119 | COc1ccc(CC(=O)c2c(O)cc(OC)cc2OC)c(OC)c1 |
| 49 to 52 | Cc1cc(F)cc(C=O)c1O |
| 103 to 104 | COc1cccc2c1OC(CO)C2=O (stereo not given) |
| 141 to 143 | COC1CCN(S(=O)(=O)c2ccc([N+](=O)[O-])cc2C(F)(F)F)CC1 |
| 135 | CCCc1cc(CC(=O)O)ccc1OCc1ccc2ccccc2n1 |
| 98 to 99 | CC(Cl)C(=O)Nc1nc(-c2ccccc2)cs1 (stereo not given) |
| 179 to 181 | CC(=O)c1cc(C(C)=O)cc(S(N)(=O)=O)c1 |
| 231 | CCCn1c(=O)c2c(nc(/C=C/c3ccc(OC(=O)c4ccccc4)c(OC(=O)c4ccccc4)c3)n2C)n(CCC)c1=O |
| 155 to 158 | CO[C@@H]1C=C2C=C3C(=C(C)C(=O)N3C)C[C@]2(C)[C@@H](C)[C@H]1OC(=O)c1ccco1 |
| 175 to 176 | CCN(CC)CCNS(=O)(=O)c1ccc(Nc2cnnc3cc(Cl)ccc23)cc1 |
| 45 | CCC1(C)OC(c2ccc(S(C)(=O)=O)cc2)=C(c2ccc(C(C)(C)C)cc2)C1=O (stereo not given) |
| 236 to 237 | CC(S)C(=O)Nc1ccc(C2=NNC(=O)CC2C)cc1 (stereo not given) |
| 64 to 66 | Cc1cc(F)ccc1-c1ccc(S(=O)(=O)N2c3ccccc3CC2C(=O)NCc2ccccc2[N+](=O)[O-])cc1 (stereo not given) |
| 225 to 230 | N=C(N)c1ccc2cc(OC(=O)C3CCC3)ccc2c1 |
| 160 to 162 | CC(=O)NC[C@H]1CN(c2cc(F)c(N3CCC4(CC3)CO4)c(F)c2)C(=O)O1 |
| 110 to 112 | COC(=O)C(Cl)=Cc1cccc([N+](=O)[O-])c1Cl |
| 117 to 119 | CCOC(=O)C1=Cc2c(ccc(Cl)c2I)OC1C(F)(F)F (stereo not given) |
| 59 to 60 | C=Cc1ccc(C(=O)Oc2ccc(S(=O)(=O)Nc3ccccc3)cc2)cc1 |
| 118 to 119 | C[C@H](NC(=O)OCc1ccccc1)C(=O)N[C@@H](Cc1ccccc1)C(=O)OCc1ccccc1 |

The remaining lines, values behind:

| SMILES | melting point [°C] |
| --- | --- |
| Cc1c(NN)nc(N)nc1-c1ccco1 | 155 to 160 |
| COc1cc(N2CCCN(C3CCN(CCO)CC3)CC2)ccc1Nc1ncc2ccc(-c3ccccc3OC)n2n1 | 77 to 94 |
| O=[N+]([O-])c1ccc(-c2ccsc2-c2ccc(F)cc2)cc1 | 108 to 110 |
| COc1ccc2c(C3NCCc4ccccc43)c(O)ccc2c1 (stereo not given) | 148 to 151 |
| CC(C)NCC(O)COc1nccnc1Cl (stereo not given) | 99 to 100 |
| CCn1c(=O)n(-c2ccc(N3CCn4c3nc3cccnc34)cc2)c2ncccc21 | 255 to 256 |
| c1coc(CN2CC3(COc4cc5c(cc43)OCO5)c3ccccc32)c1 (stereo not given) | 110 to 112 |
| Cc1ccc(C2=Cc3cc(C(=O)Nc4ccc(CN(C)C5CCOCC5)cc4)ccc3OC2)cc1 | 230 to 235 |
| COC(=O)Nc1cccc(C)c1CNc1cccn2c(C)c(C)nc12 | 136 to 138 |
| O=[N+]([O-])c1cnccc1NCc1ccc(CO)o1 | 135 |
| CCOC(=O)C1=C(C)NC(C)=C(C(=O)OCCN2CCN(C(c3ccccc3)c3ccccc3)CC2)C1c1ccccc1Cl (stereo not given) | 76 to 78 |
| COc1cc2c(Nc3ccc(Sc4nccn4C)c(Cl)c3)c(C#N)cnc2cc1N1CCN(CCn2ccnc2)CC1 | 251 to 253 |
| Clc1cc(Br)cnc1Br | 40 to 41 |
| N#Cc1ccccc1N1CCN(CC(=O)Nc2ccccc2)CC1 | 137 to 138 |
| CCc1nc2c(cnn2CC)c(NC2CCOCC2)c1CNC(=O)c1cccc(C(=O)NCc2ccc(Cl)c(-c3cccc(CN4CCCN(C)CC4)c3)c2)c1 | 105 to 107 |
| CC(C)(C)c1nc(C=O)c[nH]1 | 194 to 195 |
| CC(C)(C)OC(=O)N1CCN(c2ccc(Br)cn2)CC1 | 88 to 90 |
| CCOCCNC(=O)COc1ccn2nc(-c3ccccc3)c(-c3ccc(=O)n(C(C)C)n3)c2c1 | 126 to 128 |
| CCc1c(-c2ccc(OCc3ccccc3)cc2)c2cc(C(=O)OC)c3cccc1n32 | 129 to 131 |
| CC(C)(O)c1nc(CO)n(Cc2ccc(-c3ccccc3-c3nnn[nH]3)cc2)c1C(=O)O | 201 to 202 |
| CCOC=Nc1c(SC(F)(F)F)c(C#N)nn1-c1c(Cl)cc(C(F)(F)F)cc1Cl | 68 |
| Cc1cccc(-n2nnc3cccnc32)n1 | 144 to 145 |
| Cc1cccc2c(=O)[nH]c(CC3CN4CCC3CC4)nc12 (stereo not given) | 187 to 188 |
| CC(C)OC1OC(=O)CC(C)(C)C1OS(C)(=O)=O (stereo not given) | 75 |
| c1cncc(CNC2=Nc3ccccc3Nc3ccccc32)c1 | 150 to 152 |
| CSCCn1nc(-c2ccc(OCCCC(F)(F)F)cc2)oc1=O | 105 |

| SMILES | melting point [°C] |
| --- | --- |
| CSC1=C(c2ccccc2)C(=O)N(Nc2ccccc2)C1=O | 86 to 88 |
| COc1cc(-c2cc(=O)c3c(OC)c(OC)c(OC)c(OC)c3o2)ccc1OCc1ccccc1 | 109 to 111 |
| O=C1N(N2CCCCC2)c2ccccc2C1(Cc1ccncc1)c1ccccc1 (stereo not given) | 128 to 131 |
| Cc1cn([C@H]2CC(N=[N+]=[N-])[C@@H](COC(=O)C(C)(C)CC(=O)N[C@@H](Cc3ccccc3)[C@H](O)C(=O)N3CSC[C@H]3C(=O)NC(C)(C)C)O2)c(=O)[nH]c1=O (stereo not given in full) | 83 to 84 |
| CCC(C(=O)C(C)C(O)C(C)CCc1c(N)cc(C)c(O)c1C(=O)O)C1OC(CC)(C2CCC(O)(CC)C(C)O2)CC1C (stereo not given) | 223 to 225 |
| O=C1CCC(N2Cc3c(OCc4ccc(CN5CCC(F)(F)C5)cc4)cccc3C2=O)C(=O)N1 (stereo not given) | 126 to 128 |
| C=CCOc1ccc2c(c1CC=C)NC(=O)CC2 | 119 to 121 |
| COc1ccc(OC)c2c1c(C(=O)C(=O)NC1=CC(=O)OC1)cn2Cc1ccc(Cl)cc1 | 212 to 215 |
| COc1nccc(C)c1NC(=O)c1cc(C)nc2c1c(C)nn2-c1ccccc1 | 172 to 174 |
| CCn1cc2c(n1)c(=O)[nH]c1cc(OCc3ccccc3)ccc12 | 240 to 241 |
| COc1cc(C(=O)NC2CCN(C)CC2)c(F)cc1Nc1ncc2c(n1)N(C1CCCC1)CC(F)(F)C(=O)N2C | 194 to 196 |
| O=[N+]([O-])c1cnc2ccc(F)cc2c1Nc1ccccc1F | 161 to 162 |
| C=Cc1c(C#N)nn(-c2c(Cl)cc(C(F)(F)F)cc2Cl)c1Cl | 69.8 to 70.4 |
| COc1cccc(NC(=O)NC2N=C(c3ccccc3)c3ccc(C)cc3N(C)C2=O)c1 (stereo not given) | 184 to 188 |
| Cc1cccc([N+](=O)[O-])c1CNc1cccn2c(C)c(C)nc12 | 160 to 162 |
| CN1CCN(C(=O)OC2c3ccccc3C(=O)N2c2ccc3cccnc3n2)CC1 (stereo not given) | 183 |
| CC(C)c1cccc(C(C)C)c1NC(=O)NC1CCCCC1c1ccccc1 (stereo not given) | 225 to 226 |
| c1ncn2nncc2n1 | 249 to 251 |
| CCOC(=O)NN=COC(CC)NC (stereo not given) | 104 |
| O=C1O[C@@H](CO)CN1c1ccc(C2=CCOCC2)c(F)c1 | 127 to 130 |
| CC1CCN(C(=O)C(C)Oc2ccc(Oc3ccc(C(F)(F)F)cn3)cc2)O1 (stereo not given) | 94 to 97 |
| O=[N+]([O-])c1cccc(OCc2nc3ccccc3s2)c1 | 156 to 157 |
| CC(C)C[C@H](NC(=O)[C@H](Cc1c[nH]cn1)NC(=O)[C@H](Cc1ccccc1)NC(=O)OCc1ccccc1)[C@H](O)CO | 159 to 162 |
| CCOC(CN1C(=O)C2=C(c3ccsc3)N(CC(OCC)OCC)C(=O)C2=C1c1ccsc1)OCC | 166 to 167 |
| Cc1cc(C)c2[nH]c(=O)n(CCCN3CC=C(c4ccc(Cl)cc4)CC3)c(=O)c2c1 | 224 to 226 |
| COc1cc(CNC(=S)NC(COC(=O)C(C)(C)C)Cc2ccc(C(C)(C)C)cc2)ccc1OCCN (stereo not given) | 63 to 65 |
